From paper PMC7470151, “Synthesis and evaluation of 2,4,5-trisubstitutedthiazoles as carbonic anhydrase-III inhibitors” (Journal of Enzyme Inhibition and Medicinal Chemistry, 2020)

Key:
[1] = biological target: T1, Bovine carbonic anhydrase, isozyme III (Bos taurus, UniProt Q3SZX4); assay: Carbonic anhydrase-III inhibition assay by size exclusion Hummel–Dreyer method (HDM) chromatography; type: binding; conditions: HDM size exclusion HPLC; 0.24 mM analyte in mobile phase; 10% acetonitrile, phosphate buffer pH 6.5; 37 °C; CA-III injected at three concentrations
T1 construct: purchased Biovar Ltd, Armenia
T1 sequence (Q3SZX4 1-260): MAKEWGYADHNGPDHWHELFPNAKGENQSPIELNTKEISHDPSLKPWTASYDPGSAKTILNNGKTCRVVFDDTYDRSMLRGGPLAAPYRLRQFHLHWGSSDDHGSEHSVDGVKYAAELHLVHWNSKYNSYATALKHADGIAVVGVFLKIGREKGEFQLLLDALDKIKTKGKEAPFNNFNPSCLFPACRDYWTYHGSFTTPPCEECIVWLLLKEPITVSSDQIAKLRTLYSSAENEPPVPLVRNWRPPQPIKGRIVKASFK
Method: HPLC screening was conducted on the LC-2010A HT HPLC system, coupled with column temperature controller, degasser, auto sampler, and isocratic elution system, LC-solution software (to calculate peak area), Shimadzu Corporation, Kyoto, Japan. Back pressure was maintained around 6 MPA. A Phenomenex BioSep-SEC s2000, 300 × 7.8 mm column was used for size exclusion chromatography.
Bovine carbonic anhydrase, isozyme III (Biovar Ltd, Armenia) was stored at 0 °C in refrigerator until use. Enzyme was left for few minutes at room temperature before analysis. HPLC-grade methanol and acetonitrile (Fisher Scientific, Loughborough, UK) were used without further purification. NaH2PO4.H2O (Gainland, Deeside, UK), HCl (Carlo Erba, Italy), NaOH (Lonver, UK), and deionised water were used for the preparation of mobile phase. All the required chemicals for the synthesis of target compounds (12–16b) were procured either from Fisher Scientific, Loughborough, UK or Sigma-Aldrich, St. Louis, MO.
Each target compounds (12–16b) was dissolved in a mixture of acetonitrile: phosphate buffer, pH 6.5 (1:9 v/v) to obtain a final concentration of 0.24 mM. Subsequently, filtration and degassing by sonication were conducted for the mobile phase. Three different enzyme (CA-III) concentrations of […] were prepared from the stock solution (containing 0.865 mg in 10 mL of distilled water) by subsequent dilution method and injected separately in each run in the chromatographic system. All samples were used in duplicate. Vanillic acid was used as a positive control, and toluene was used as a negative control.
The mobile phase used for analysis was chosen according to the optimised conditions obtained, where 10% of organic modifier, 30 mM phosphate buffer (pH = 6.5) and 37 °C temperature was used. Column was pre-equilibrated with the mobile phase for 50 min. The flow rate of mobile phase was maintained at 1 mL/min during the run time. A wavelength of 230 nm (λmax) was selected for the analysis of all the tested compounds.
CA-III inhibitory activities of all the 17 target compounds (12–16b) as shown in Table 1 were carried out by using size exclusion HDM chromatography. The HDM chromatography was preferred over colorimetric assay of CA inhibitors, due to the susceptibility of the colorimetric methods to the intrinsic acidic or alkaline properties of analytes (inhibitors), including the lower catalytic activity of CA-III in CO2 hydration. Moreover, in HDM chromatographic method, the dilution effect of the mobile phase not only provides comparatively larger space for interaction between the macromolecule (CA-III) and analytes, but also lowers the probability of self-aggregation of macromolecules[35–37]^,[41]. The HDM was further optimised prior to use, where mobile phase was buffered to maintain the pH = 6.5 to mimic the physiological condition and to minimise the intrinsic properties of analytes. Moreover, acetonitrile (10%) was used to facilitate the elution of analytes (inhibitors) from the hydrophobic column as well as to prevent the adhesion of macromolecule to the stationary phase of the column. A constant optimised temperature of 37 °C was maintained throughout the chromatographic run, as the increase in temperature could not only influence the protein-ligand interaction but also affect the longevity of the column.
The chromatographic analysis by HDM is basically based on the measurement of the intensity of the formation of vacancy (negative) peak due to the subtraction of CA-III bound portion of analytes from the mobile phase. This method is also independent of the enzyme catalytic activity, thereby considered as more sensitive method for the estimation of inhibitory activities of analytes as compared to the colorimetric assay[35–37]^,[41]. Thus, weak inhibitors created weak vacancy peaks independent of the enzyme concentrations. […]

| SMILES | Ki [1] [µM] | melting point [°C] |
| --- | --- | --- |
| COC(=O)c1nc(N)sc1-c1ccc(C)cc1 [Compound 13, Methyl-2-amino-5-(p-tolyl)thiazole-4-carboxylate] | > 500 | 201 |
| COC(=O)c1nc(N)sc1-c1ccccc1 [Compound 12] | > 500 | – |
| Nc1nc(C(=O)O)c(-c2ccccc2)s1 [Compound 12a, 2-amino-5-phenylthiazole-4-carboxylic acid] | 0.5 | – |
| COC(=O)c1nc(N)sc1Cc1ccccc1 [Compound 16] | > 500 | – |
| COC(=O)c1nc(NC(=O)c2ccc([N+](=O)[O-])cc2)sc1-c1ccccc1 [Compound 12b, Methyl-2-(4-nitrobenzamido)-5-substituted-thiazole-4-carboxylate] | > 500 | – |
| COc1cc(C(=O)O)ccc1O [Vanillic acid, reference compound] | 6.8 | – |
| COC(=O)c1nc(N)sc1-c1ccc(S(C)(=O)=O)cc1 [Compound 14, Methyl-2-amino-5-(4-(methylsulfonyl)phenyl)thiazole-4-carboxylate] | > 500 | 260 |
| COC(=O)c1nc(N)sc1-c1ccc(Cl)c([N+](=O)[O-])c1 [Compound 15] | > 500 | – |

Next, values leading:

| Ki [1] [µM] | melting point [°C] | SMILES |
| --- | --- | --- |
| > 500 | – | Nc1nc(C(=O)O)c(Cc2ccccc2)s1 [Compound 16a] |
| > 500 | 239 | COC(=O)c1nc(NC(=O)c2ccc(OC)cc2)sc1-c1ccc(S(C)(=O)=O)cc1 [Compound 14b, Methyl-2-(4-methoxybenzamido)-5-(4-(methylsulfonyl)phenyl)thiazole-4-carboxylate] |
| > 500 | 226 | COC(=O)c1nc(NC(=O)Nc2ccccc2)sc1Cc1ccccc1 [Compound 16b, Methyl-5-benzyl-2-(3-phenylureido)thiazole-4-carboxylate] |
| 186 | 174 | COc1ccc(C(=O)Nc2nc(C(=O)O)c(-c3ccc(S(C)(=O)=O)cc3)s2)cc1 [Compound 14c, 2-(4-Methoxybenzamido)-5-(4-(methylsulfonyl)phenyl)thiazole-4-carboxylic acid] |
| 18.9 | 236 | Cc1ccc(-c2sc(N)nc2C(=O)O)cc1 [Compound 13a, 2-Amino-5-(p-tolyl)thiazole-4-carboxylic acid] |
| 174 | 226 | Cc1ccc(-c2sc(NC(=O)Nc3ccccc3)nc2C(=O)O)cc1 [Compound 13c, 2-(3-Phenylureido)-5-(p-tolyl)thiazole-4-carboxylic acid] |
| > 500 | 143 | COC(=O)c1nc(NC(=O)Nc2ccccc2)sc1-c1ccc(S(C)(=O)=O)cc1 [Compound 14d, Methyl 5-(4-(methylsulfonyl)phenyl)-2-(3-phenylureido)thiazole-4-carboxylate] |
| 86.6 | 238 | CS(=O)(=O)c1ccc(-c2sc(N)nc2C(=O)O)cc1 [Compound 14a, 2-Amino-5-(4-(methylsulfonyl)phenyl)thiazole-4-carboxylic acid] |
| 81.2 | 163 | Nc1nc(C(=O)O)c(-c2ccc(Cl)c([N+](=O)[O-])c2)s1 [Compound 15a, 2-Amino-5-(4-chloro-3-nitrophenyl)thiazole-4-carboxylic acid] |
| > 500 | 147 | COC(=O)c1nc(NC(=O)Nc2ccccc2)sc1-c1ccc(C)cc1 [Compound 13b, Methyl-2-(3-phenylureido)-5-(p-tolyl)thiazole-4-carboxylate] |
